The values below come from ChEMBL document CHEMBL6092198, “Coumarin-Quinazolinone based photosensitizers: Mitochondria and endoplasmic reticulum targeting for enhanced phototherapy via different cell death pathways” (Eur J Med Chem, 2024).

Data set [1] is described as follows: Photophysical property of the compound in water assessed as fluorescence quantum yield under 450 nm photoirradiation with blue light lamp by U-4100 spectrophotometric analysis. The arrangement: unit not given here. As to conditions: buffer. The data set is classed as physicochemical.
Data set [2] can be described thus: Photophysical property of the compound in MeOH assessed as fluorescence quantum yield under 450 nm photoirradiation with blue light lamp by U-4100 spectrophotometric analysis. The class given is physicochemical. Also on record: unit not given here.
The nature of data set [3]: Photophysical property of the compound assessed as singlet oxygen quantum yield under 15 W photoirradiation with blue LED light by EPR spectrophotometric analysis. The class given is physicochemical. Also on record: unit not given here.
Data set [4] in a line: Drug localization in mitochondria of human HepG2 cells at 2 uM incubated for 2 hrs by MitoTracker red CMXRos staining based confocal fluorescence microscopy. The data set is classed as ADME. Particulars: hepg2, 2 h.
The test system of data set [5] is HepG2. Nature of the data set: Cytotoxicity against human HepG2 cells assessed as cell viability incubated for 4 hrs under dark condition by MTT assay. The class given is functional, cell-based. Particulars: HepG2, 4 h.
Data set [6] is described as follows: Phototoxicity against human HepG2 cells assessed as cell viability preincubated with compound for 4 hrs followed by light irradiation with 450 nm blue LED lamp for 10 mins and measured after 24 hrs by MTT assay. The data set is classed as functional, cell-based. As to conditions: HepG2, light or radiation study. For orientation: Tetrazolium dyes change colour on reduction, which living cells bring about.

The nature of data set [7]: Phototoxic index, ratio of IC50 for cytotoxicity against human HepG2 cells incubated for 4 hrs under dark condition by MTT assay to IC50 for cytotoxicity against human HepG2 cells preincubated with compound for 4 hrs followed by light irradiation with 450 nm blue LED lamp for 10 mins and measured after 24 hrs by MTT assay. The data set is classed as functional.
Data set [8] deals with HepG2. Nature of the data set: Induction of apoptosis in human HepG2 cells assessed as chromatin condensation by measuring increase in blue fluorescence at 0.3 uM preincubated with compound for 4 hrs followed by light irradiation with 450 nm blue LED lamp for 10 mins and measured after 24 hrs by Hoechst 33342 staining based confocal microscopic analysis. The data set is classed as functional, cell-based. As to conditions: time 1690.0 min.

Data set [9] has as its system HepG2. Nature of the data set: Induction of apoptosis in human HepG2 cells assessed as chromatin condensation by measuring increase in red fluorescence at 0.3 uM preincubated with compound for 4 hrs followed by light irradiation with 450 nm blue LED lamp for 10 mins and measured after 24 hrs by PI staining based confocal microscopic analysis. Particulars: time 1690.0 min. The class given is functional, cell-based.

Data set [10] concerns HepG2. Nature of the data set: Induction of ferroptosis in human HepG2 cells assessed as downregulation of Keap1 expression preincubated with compound for 4 hrs followed by light irradiation with blue LED lamp for 10 mins and measured after 24 hrs in presence of Fer-1 by Western blot analysis. Particulars: time 1690.0 min. The class given is functional, cell-based. (In general: Immunoblotting shows a protein as a band on a membrane.)

In data set [11] the test system is HepG2. Nature of the data set: Induction of ferroptosis in human HepG2 cells assessed as downregulation of Gpx4 expression preincubated with compound for 4 hrs followed by light irradiation with blue LED lamp for 10 mins and measured after 24 hrs in presence of Fer-1 by Western blot analysis. As to conditions: time 1690.0 min. The data set is classed as functional, cell-based.

Data set [12] deals with HepG2. Nature of the data set: Induction of ferroptosis in human HepG2 cells assessed as downregulation of Fth1 expression preincubated with compound for 4 hrs followed by light irradiation with blue LED lamp for 10 mins and measured after 24 hrs in presence of Fer-1 by Western blot analysis. Particulars: time 1690.0 min. The class given is functional, cell-based.
Data set [13] relates to HepG2. Nature of the data set: Induction of ferroptosis in human HepG2 cells assessed as cell viability preincubated with compound for 4 hrs followed by light irradiation with 450 nm blue LED lamp for 10 mins and measured after 24 hrs in presence of 50 uM Fer-1 by MTT assay relative to control. The class given is functional. As to conditions: time 1690 min; 28.17 h.
For data set [14], the system named is HepG2. Nature of the data set: Induction of apoptosis in human HepG2 cells assessed as effect on PARP level preincubated with compound for 4 hrs followed by light irradiation with blue LED lamp for 10 mins and measured after 24 hrs by Western blot analysis. The class given is functional, cell-based. Particulars: time 1690.0 min.
Data set [15] relates to HepG2. Nature of the data set: Induction of apoptosis in human HepG2 cells assessed as effect on caspase-3 level preincubated with compound for 4 hrs followed by light irradiation with blue LED lamp for 10 mins and measured after 24 hrs by Western blot analysis. The data set is classed as functional, cell-based. Particulars: time 1690.0 min.
The test system of data set [16] is HepG2. Nature of the data set: Induction of apoptosis in human HepG2 cells assessed as increase in Bax expression preincubated with compound for 4 hrs followed by light irradiation with blue LED lamp for 10 mins and measured after 24 hrs by Western blot analysis. The data set is classed as functional, cell-based. As to conditions: time 1690.0 min.
Data set [17] deals with HepG2. Nature of the data set: Induction of apoptosis in human HepG2 cells assessed as change in Bcl-2 level preincubated with compound for 4 hrs followed by light irradiation with blue LED lamp for 10 mins and measured after 24 hrs by Western blot analysis. The data set is classed as functional, cell-based. Particulars: time 1690.0 min.
The subject of data set [18] is HepG2. Nature of the data set: Induction of apoptosis in human HepG2 cells assessed as reduction in Bcl-2/Bax ratio preincubated with compound for 4 hrs followed by light irradiation with blue LED lamp for 10 mins and measured after 24 hrs by Western blot analysis. The data set is classed as functional, cell-based. Particulars: time 1690.0 min.
Data set [19] has as its system HepG2. Nature of the data set: Induction of apoptosis in human HepG2 cells assessed as cytochrome C release from mitochondria preincubated with compound for 4 hrs followed by light irradiation with blue LED lamp for 10 mins and measured after 24 hrs by Western blot analysis. The data set is classed as functional, cell-based. Particulars: time 1690.0 min.
Data set [20] relates to HepG2. Nature of the data set: Induction of mitochondrial damage in human HepG2 cells assessed as change in mitochondrial morphology at 1 uM preincubated with compound for 4 hrs followed by light irradiation with blue LED lamp for 10 mins and measured after 24 hrs by confocal microscopic analysis. Particulars: time 1690.0 min. The class given is functional, cell-based.
For the next data set, the system named is Mitochondrial membrane. Nature of the data set: Induction of mitochondrial membrane potential loss in human HepG2 cells at 3 uM incubated for 4 hrs in presence of light irradiation by TMRE staining based fluorescence microscopic analysis. The class given is cell membranes.
Data set [21] deals with HepG2. Nature of the data set: Antiproliferative activity against human HepG2 cells cultured as 3D spheroids assessed as inhibition of cell growth at 5 to 10 uM pretreated with 450 nm light irradiation and compound for 10 mins and measured at day 5 by fluorescence microscopic analysis. Particulars: dose 5-10 µM, time 7210.0 min. The data set is classed as functional, cell-based.

Data set [22] concerns HepG2. Nature of the data set: Antiproliferative activity against human HepG2 cells cultured as 3D spheroids assessed as inhibition of cell growth at 5 uM pretreated with 450 nm light irradiation and compound for 10 mins and measured at day 5 by fluorescence microscopic analysis. The data set is classed as functional, cell-based. As to conditions: time 7210.0 min.
Data set [23] can be described thus: Drug localization in nucleus of human HepG2 cells at 2 uM incubated for 2 hrs by […] staining based confocal fluorescence microscopy. The class given is ADME, subcellular. Particulars: hepg2, 2 h.
Data set [24] is described as follows: Drug localization in lysosome of human HepG2 cells at 2 uM incubated for 2 hrs by Lyso-Tracker staining based confocal fluorescence microscopy. The data set is classed as ADME, subcellular. Particulars: hepg2, 2 h.
Data set [25] is described as follows: Drug localization in endoplasmic reticulum of human HepG2 cells at 2 uM incubated for 2 hrs by ER-Tracker Blue staining based confocal fluorescence microscopy. The data set is classed as ADME, subcellular. As to conditions: hepg2, 2 h.
Data set [26] has as its system HepG2. Nature of the data set: Induction of apoptosis in human HepG2 cells assessed as chromatin condensation by measuring increase in blue fluorescence at 0.1 uM preincubated with compound for 4 hrs followed by light irradiation with 450 nm blue LED lamp for 10 mins and measured after 24 hrs by Hoechst 33342 staining based confocal microscopic analysis. The data set is classed as functional, cell-based. As to conditions: time 1690.0 min.

The subject of data set [27] is HepG2. Nature of the data set: Induction of apoptosis in human HepG2 cells assessed as chromatin condensation by measuring increase in red fluorescence at 0.1 uM preincubated with compound for 4 hrs followed by light irradiation with 450 nm blue LED lamp for 10 mins and measured after 24 hrs by PI staining based confocal microscopic analysis. As to conditions: time 1690.0 min. The data set is classed as functional, cell-based.

For data set [28], the system named is HepG2. Nature of the data set: Induction of ferroptosis in human HepG2 cells assessed as cell death preincubated with compound for 4 hrs followed by light irradiation with 450 nm blue LED lamp for 10 mins and measured after 24 hrs in presence of ferrostatin-1 by MTT assay. The data set is classed as functional, cell-based. As to conditions: time 1690.0 min.

Data set [29] concerns HepG2. Nature of the data set: Induction of ferroptosis in human HepG2 cells assessed as cell death preincubated with compound for 4 hrs followed by light irradiation with 450 nm blue LED lamp for 10 mins and measured after 24 hrs in presence of 50 uM ferrostatin-1 by MTT assay. The data set is classed as functional, cell-based. Particulars: time 1690.0 min.
Data set [30] deals with HepG2. Nature of the data set: Induction of ferroptosis in human HepG2 cells assessed as cell viability preincubated with compound for 4 hrs followed by light irradiation with 450 nm blue LED lamp for 10 mins and measured after 24 hrs in presence of necrostatin-1 by MTT assay. The data set is classed as functional, cell-based. Particulars: time 1690.0 min.
The subject of data set [31] is HepG2. Nature of the data set: Induction of ferroptosis in human HepG2 cells assessed as cell viability preincubated with compound for 4 hrs followed by light irradiation with 450 nm blue LED lamp for 10 mins and measured after 24 hrs in presence of 3-methyladenine by MTT assay. The class given is functional, cell-based. As to conditions: time 1690.0 min.
In data set [32] the test system is HepG2. Nature of the data set: Induction of ferroptosis in human HepG2 cells assessed as cell viability preincubated with compound for 4 hrs followed by light irradiation with 450 nm blue LED lamp for 10 mins and measured after 24 hrs in presence of chloroquine by MTT assay. The class given is functional, cell-based. As to conditions: time 1690.0 min.

SMILES strings stand for the structures. The source made the active and inactive calls. The rule behind the calls is not given here.

In the case of `CCN(CC)c1ccc2cc(-c3nc4ccc(OCc5cn(CCC[P+](c6ccccc6)(c6ccccc6)c6ccccc6)nn5)cc4c(=O)[nH]3)c(=O)oc2c1.[Br-]`, the Activity is recorded as 8.72 in data set [1], 69.6 in data set [2], 27.22 in data set [3] and about 70% in the data set on HepG2 [13]. Moreover, the Drug uptake entry in data set [4] is on record as “Active”. Further, the IC50 (usually the point on the concentration scale where inhibition reaches its midpoint) with HepG2 [5] stood at 46.7 µM; in [6], 0.28 µM. Also, the “Ratio IC50” value in [7] is 166.89. The result with HepG2 [8], in the data set with HepG2 [9], in the data set on HepG2 [10], in the data set on HepG2 [11], in the data set with HepG2 [12] and in the data set with HepG2 [14] was Active. Besides, the outcome in the data set with HepG2 [15], in the data set on HepG2 [16], with HepG2 [18], in the data set with HepG2 [19], in the data set with HepG2 [20] and in the data set on Mitochondrial membrane was Active. Further, the outcome in the data set on HepG2 [21] and with HepG2 [22] was Active. Besides, the result in the data set on HepG2 [17] was inactive.

For the compound `CCN(CC)c1ccc2cc(-c3nc4ccc(OCCN5CCCCC5)cc4c(=O)[nH]3)c(=O)oc2c1`, the Activity stood at 15.68 in data set [1], 47.65 in data set [2] and 24.5 in [3]. In addition, the Drug uptake entry in data set [23] was “Active”. Also, the figures for the IC50 (in the data set on HepG2 [5]; in [6]) were 3.95 µM and 0.11 µM, respectively. The “Ratio IC50” value in data set [7] is on record as 35.9.

As for `CCN(CC)c1ccc2cc(-c3nc4ccc(OCCCN5CCOCC5)cc4c(=O)[nH]3)c(=O)oc2c1`, the Activity came to 31.49 in [1], 79.66 in data set [2] and 13.06 in [3]. The Drug uptake entry in data set [24] is listed as “Active”. Besides, the values for the IC50 (in the data set on HepG2 [5]; in [6]) were 12.4 µM and 0.38 µM, respectively. For the same compound, in data set [7], the “Ratio IC50” value was 32.52.

Regarding `CCN(CC)c1ccc2cc(-c3nc4ccc(O)cc4c(=O)[nH]3)c(=O)oc2c1`, the Activity in data set [1] is on record as under 5; in data set [2], 36.66; in [3], 12.86. The IC50 came out at 57.6 µM with HepG2 [5] and 24.5 µM in [6]. Besides, the “Ratio IC50” value in [7] was 2.35.

As for `CCN(CC)c1ccc2cc(-c3nc4ccc(OCc5cn(CCNS(=O)(=O)c6ccc(C)cc6)nn5)cc4c(=O)[nH]3)c(=O)oc2c1`, the Activity worked out at 7.55 in [1], 59.27 in data set [2] and 30.08 in [3]. In [25], the Drug uptake result is given as “Active”. For the same compound, the IC50 in the data set on HepG2 [5] came out at 36.7 µM; in data set [6], 0.15 µM. Further, in data set [7], the “Ratio IC50” value was 244.93. Further, the result with HepG2 [26], in the data set with HepG2 [27], in the data set on HepG2 [28], in the data set with HepG2 [29], in the data set with HepG2 [30] and in the data set on HepG2 [31] was Active. The outcome in the data set with HepG2 [32] was Active.
